The text below walks through data of patent US20260242419A1, “A CYCLIC PEPTIDE FOR TRAPPING INTERLEUKIN-1 BETA” (Merck Sharp & Dohme LLC, priority 2023, published 2026).

Starred links: 1 amine or outer side, 2 acyl side, 3 side chain; linkers in the order of their positions; H or OH if unused. Non-standard residues stand in square brackets, D forms with d. Residues, ends and D or L forms follow the SMILES beside them. dPro(4R-(4-pyridylmethyl)) = O=C(O)[C@H]1C[C@@H](Cc2ccncc2)CN1; Trp(βS-Me,4-F) = C[C@@H](c1c[nH]c2cccc(F)c12)[C@H](N)C(=O)O; Bip(4'-COOH) = N[C@@H](Cc1ccc(-c2ccc(C(=O)O)cc2)cc1)C(=O)O; dPro(3S-(4-F-Bn)) = O=C(O)[C@@H]1NCC[C@@H]1Cc1ccc(F)cc1; X41 = O=C([C@@H](N[*:1])[C@@H](O)c1ccncc1)[*:2]; Ala(pyrimidin-5-yl) = N[C@@H](Cc1cncnc1)C(=O)O; Phe(4-COOH) = N[C@@H](Cc1ccc(C(=O)O)cc1)C(=O)O; Bip = N[C@@H](Cc1ccc(-c2ccccc2)cc1)C(=O)O; Pro(cis-4-F) = O=C(O)[C@@H]1C[C@H](F)CN1; Met(O2) = CS(=O)(=O)CC[C@H](N)C(=O)O; d(αMeF) = C[C@@](N)(Cc1ccccc1)C(=O)O; hTyr = N[C@@H](CCc1ccc(O)cc1)C(=O)O; cisHyp = O=C(O)[C@@H]1C[C@H](O)CN1; d(αMeD) = C[C@@](N)(CC(=O)O)C(=O)O; 4Pal = N[C@@H](Cc1ccncc1)C(=O)O; aThr = C[C@H](O)[C@H](N)C(=O)O; d(αMeS) = C[C@@](N)(CO)C(=O)O; NMeDab = CN[C@@H](CCN)C(=O)O; Dab = NCC[C@H](N)C(=O)O; Aib = CC(C)(N)C(=O)O

In this assay the target is T1, IL-1β (Homo sapiens, UniProt P01584).
T1 construct: purchased BioLegend 579404
T1 sequence (P01584 117-269): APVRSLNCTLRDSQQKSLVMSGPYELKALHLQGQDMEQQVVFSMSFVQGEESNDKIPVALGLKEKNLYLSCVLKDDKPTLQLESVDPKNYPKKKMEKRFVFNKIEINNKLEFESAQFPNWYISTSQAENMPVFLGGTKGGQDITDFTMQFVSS
The experiment in a line: IL-6 assay in MRC5 cells: inhibition of IL-1β induced IL-6 secretion (AlphaLISA). It counts as cell-based. The note with it: inhibition of IL-1β induced IL-6 secretion in MRC5 cells; compound pre-incubated 1 hour with recombinant human IL-1β; read-out: MRC5 IC50. The gist of the method:
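Compound was pre-incubated 1 h at ambient temperature with recombinant human IL-1β at 2λ EC80 before adding human lung fibroblast MRC5 cells (3000/well) in EMEM with 0.025% BSA. After overnight culture at 37 °C, 5% CO2, secreted IL-6 in conditioned medium was measured by AlphaLISA; IC50 from 4-parameter logistic fits.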
(In general: Bead proximity is the source of the signal in Alpha formats.)
A word on the IC50: it is the concentration that gives 50% inhibition. On to `CO[C@H](C)[C@@H]1NC(=O)[C@@](C)(CC(=O)O)NC(=O)[C@H](Cc2c[nH]c3ccccc23)NC(=O)[C@H](CO)NC(=O)C(C)(C)NC(=O)[C@H]([C@@H](C)c2c[nH]c3cccc(F)c23)NC(=O)[C@@H]2C[C@H](F)CN2C(=O)CNC(=O)[C@H](Cc2ccc(C(=O)O)cc2)NC(=O)[C@H](Cc2ccncc2)NC(=O)[C@H](Cc2ccc(-c3ccc(C(=O)O)cc3)cc2)NC(=O)[C@H]2C[C@@H](Cc3ccncc3)CN2C(=O)CNC(=O)[C@H](CCN)NC(=O)[C@H](CCC(N)=O)NC1=O` [Example 255] (cyclo([Bip(4'-COOH)][4Pal][Phe(4-COOH)]G[Pro(cis-4-F)][Trp(βS-Me,4-F)][Aib]SW[d(αMeD)]T(Me)Q[Dab]G[dPro(4R-(4-pyridylmethyl))])), for which the IC50 came out at 0.011 nM.
Turning to `C[C@@H](c1c[nH]c2cccc(F)c12)[C@@H]1NC(=O)[C@@H]2C[C@H](F)CN2C(=O)CNC(=O)[C@H](Cc2ccc(C(=O)O)cc2)NC(=O)[C@H](Cc2ccncc2)NC(=O)[C@H](Cc2ccc(-c3ccc(C(=O)O)cc3)cc2)NC(=O)[C@H]2C[C@@H](Cc3ccncc3)CN2C(=O)CNC(=O)[C@H](CCN)NC(=O)[C@H](CCC(N)=O)NC(=O)[C@H](CCc2ccc(O)cc2)NC(=O)[C@@](C)(CC(=O)O)NC(=O)[C@H](Cc2c[nH]c3ccccc23)NC(=O)[C@H](CO)NC(=O)C(C)(C)NC1=O` [Example 256] (cyclo([Bip(4'-COOH)][4Pal][Phe(4-COOH)]G[Pro(cis-4-F)][Trp(βS-Me,4-F)][Aib]SW[d(αMeD)][hTyr]Q[Dab]G[dPro(4R-(4-pyridylmethyl))])), the IC50 worked out at 0.012 nM.
Under `C[C@H](O)[C@@H]1NC(=O)[C@@](C)(Cc2ccccc2)NC(=O)[C@H](Cc2c[nH]c3ccccc23)NC(=O)[C@H](CO)NC(=O)C(C)(C)NC(=O)[C@H]([C@@H](C)c2c[nH]c3cccc(F)c23)NC(=O)[C@@H]2C[C@H](F)CN2C(=O)CNC(=O)[C@H](Cc2ccc(C(=O)O)cc2)NC(=O)[C@H](Cc2ccncc2)NC(=O)[C@H](Cc2ccc(-c3ccc(C(=O)O)cc3)cc2)NC(=O)[C@H]2C[C@@H](Cc3ccncc3)CN2C(=O)CNC(=O)[C@H](CCN)NC(=O)[C@H](CCC(N)=O)NC1=O` [Example 257] (cyclo([Bip(4'-COOH)][4Pal][Phe(4-COOH)]G[Pro(cis-4-F)][Trp(βS-Me,4-F)][Aib]SW[d(αMeF)][aThr]Q[Dab]G[dPro(4R-(4-pyridylmethyl))])) stands 0.021 nM.
Under `C[C@@H](c1c[nH]c2cccc(F)c12)[C@@H]1NC(=O)[C@@H]2C[C@H](F)CN2C(=O)CNC(=O)[C@H](Cc2ccc(C(=O)O)cc2)NC(=O)[C@H](Cc2ccncc2)NC(=O)[C@H](Cc2ccc(-c3ccc(C(=O)O)cc3)cc2)NC(=O)[C@H]2C[C@@H](Cc3ccncc3)CN2C(=O)CNC(=O)[C@H](CCN)NC(=O)[C@H](CCC(N)=O)NC(=O)[C@H](CCC(=O)O)NC(=O)[C@@](C)(Cc2ccccc2)NC(=O)[C@H](Cc2c[nH]c3ccccc23)NC(=O)[C@H](CO)NC(=O)C(C)(C)NC1=O` [Example 258] (cyclo([Bip(4'-COOH)][4Pal][Phe(4-COOH)]G[Pro(cis-4-F)][Trp(βS-Me,4-F)][Aib]SW[d(αMeF)]EQ[Dab]G[dPro(4R-(4-pyridylmethyl))])) stands 0.02 nM.
Under `C[C@@H](c1c[nH]c2cccc(F)c12)[C@@H]1NC(=O)[C@@H]2C[C@H](F)CN2C(=O)CNC(=O)[C@H](Cc2ccc(C(=O)O)cc2)NC(=O)[C@H](Cc2ccncc2)NC(=O)[C@H](Cc2ccc(-c3ccc(C(=O)O)cc3)cc2)NC(=O)[C@H]2C[C@@H](Cc3ccncc3)CN2C(=O)CNC(=O)[C@H](CCN)NC(=O)[C@H](CCC(N)=O)NC(=O)[C@H](CC(=O)O)NC(=O)[C@@](C)(Cc2ccccc2)NC(=O)[C@H](Cc2c[nH]c3ccccc23)NC(=O)[C@H](CO)NC(=O)C(C)(C)NC1=O` [Example 259] (cyclo([Bip(4'-COOH)][4Pal][Phe(4-COOH)]G[Pro(cis-4-F)][Trp(βS-Me,4-F)][Aib]SW[d(αMeF)]DQ[Dab]G[dPro(4R-(4-pyridylmethyl))])) stands 0.014 nM; under `COC[C@@]1(C)NC(=O)[C@H](Cc2c[nH]c3ccccc23)NC(=O)[C@H](CO)NC(=O)C(C)(C)NC(=O)[C@H]([C@@H](C)c2c[nH]c3cccc(F)c23)NC(=O)[C@@H]2C[C@H](F)CN2C(=O)CNC(=O)[C@H](Cc2ccc(C(=O)O)cc2)NC(=O)[C@H](Cc2ccncc2)NC(=O)[C@H](Cc2ccc(-c3ccc(C(=O)O)cc3)cc2)NC(=O)[C@H]2C[C@@H](Cc3ccncc3)CN2C(=O)CNC(=O)[C@H](CCN)NC(=O)[C@H](CCC(N)=O)NC(=O)[C@H](Cc2cncnc2)NC1=O` [Example 260] (cyclo([Bip(4'-COOH)][4Pal][Phe(4-COOH)]G[Pro(cis-4-F)][Trp(βS-Me,4-F)][Aib]SW[d(αMeS)](Me)[Ala(pyrimidin-5-yl)]Q[Dab]G[dPro(4R-(4-pyridylmethyl))])), 0.013 nM.
For the compound `COC[C@@]1(C)NC(=O)[C@H](Cc2c[nH]c3ccccc23)NC(=O)[C@H](CO)NC(=O)C(C)(C)NC(=O)[C@H]([C@@H](C)c2c[nH]c3cccc(F)c23)NC(=O)[C@@H]2C[C@H](F)CN2C(=O)CNC(=O)[C@H](Cc2ccc(C(=O)O)cc2)NC(=O)[C@H](Cc2ccncc2)NC(=O)[C@H](Cc2ccc(-c3ccc(C(=O)O)cc3)cc2)NC(=O)[C@H]2C[C@@H](Cc3ccncc3)CN2C(=O)CNC(=O)[C@H](CCN)NC(=O)[C@H](CCC(N)=O)NC(=O)[C@H]([C@H](C)O)NC1=O` [Example 261] (cyclo([Bip(4'-COOH)][4Pal][Phe(4-COOH)]G[Pro(cis-4-F)][Trp(βS-Me,4-F)][Aib]SW[d(αMeS)](Me)[aThr]Q[Dab]G[dPro(4R-(4-pyridylmethyl))])), the IC50 is 0.017 nM.
Under `C[C@@H](c1c[nH]c2cccc(F)c12)[C@@H]1NC(=O)[C@@H]2C[C@H](F)CN2C(=O)CNC(=O)[C@H](Cc2ccc(C(=O)O)cc2)NC(=O)[C@H](Cc2ccncc2)NC(=O)[C@H](Cc2ccc(-c3ccc(C(=O)O)cc3)cc2)NC(=O)[C@H]2C[C@@H](Cc3ccncc3)CN2C(=O)CNC(=O)[C@H](CCN)N(C)C(=O)[C@H](CCC(N)=O)NC(=O)[C@H](Cc2cncnc2)NC(=O)C(C)(C)NC(=O)[C@H](Cc2c[nH]c3ccccc23)NC(=O)[C@H](CO)NC(=O)C(C)(C)NC1=O` [Example 262] (cyclo([Bip(4'-COOH)][4Pal][Phe(4-COOH)]G[Pro(cis-4-F)][Trp(βS-Me,4-F)][Aib]SW[Aib][Ala(pyrimidin-5-yl)]Q[NMeDab]G[dPro(4R-(4-pyridylmethyl))])) stands 0.02 nM; under `C[C@@H](c1c[nH]c2cccc(F)c12)[C@@H]1NC(=O)[C@@H]2C[C@H](F)CN2C(=O)CNC(=O)[C@H](Cc2ccc(C(=O)O)cc2)NC(=O)[C@H](Cc2ccncc2)NC(=O)[C@H](Cc2ccc(-c3ccc(C(=O)O)cc3)cc2)NC(=O)[C@H]2[C@@H](Cc3ccc(F)cc3)CCN2C(=O)CNC(=O)[C@H](CCN)NC(=O)[C@H](CCC(N)=O)NC(=O)[C@H]([C@@H](O)c2ccncc2)NC(=O)[C@@](C)(CC(=O)O)NC(=O)[C@H](Cc2c[nH]c3ccccc23)NC(=O)[C@H](CO)NC(=O)C(C)(C)NC1=O` [Example 263] (cyclo([Bip(4'-COOH)][4Pal][Phe(4-COOH)]G[Pro(cis-4-F)][Trp(βS-Me,4-F)][Aib]SW[d(αMeD)][X41]Q[Dab]G[dPro(3S-(4-F-Bn))])), 0.017 nM; under `C[C@@H](c1c[nH]c2cccc(F)c12)[C@@H]1NC(=O)[C@@H]2C[C@H](O)CN2C(=O)CNC(=O)[C@H](Cc2ccc(C(=O)O)cc2)NC(=O)[C@H](Cc2ccncc2)NC(=O)[C@H](Cc2ccc(-c3ccccc3)cc2)NC(=O)[C@H]2C[C@@H](Cc3ccncc3)CN2C(=O)CNC(=O)[C@H](CCN)NC(=O)[C@H](CCC(N)=O)NC(=O)[C@H](Cc2cncnc2)NC(=O)[C@@](C)(CC(=O)O)NC(=O)[C@H](Cc2c[nH]c3ccccc23)NC(=O)[C@H](CO)NC(=O)C(C)(C)NC1=O` [Example 264] (cyclo([Bip][4Pal][Phe(4-COOH)]G[cisHyp][Trp(βS-Me,4-F)][Aib]SW[d(αMeD)][Ala(pyrimidin-5-yl)]Q[Dab]G[dPro(4R-(4-pyridylmethyl))])), 0.017 nM.
For `C[C@@H](c1c[nH]c2cccc(F)c12)[C@@H]1NC(=O)[C@@H]2C[C@H](F)CN2C(=O)CNC(=O)[C@H](Cc2ccc(C(=O)O)cc2)NC(=O)[C@H](Cc2ccncc2)NC(=O)[C@H](Cc2ccc(-c3ccccc3)cc2)NC(=O)[C@H]2C[C@@H](Cc3ccncc3)CN2C(=O)CNC(=O)[C@H](CCN)NC(=O)[C@H](CCC(N)=O)NC(=O)[C@@H](CC(=O)O)NC(=O)C(C)(C)NC(=O)[C@H](Cc2c[nH]c3ccccc23)NC(=O)[C@H](CO)NC(=O)C(C)(C)NC1=O` [Example 265] (cyclo([Bip][4Pal][Phe(4-COOH)]G[Pro(cis-4-F)][Trp(βS-Me,4-F)][Aib]SW[Aib][dD]Q[Dab]G[dPro(4R-(4-pyridylmethyl))])), the IC50 came to 0.022 nM.
Under `C[C@@H](c1c[nH]c2cccc(F)c12)[C@@H]1NC(=O)[C@@H]2C[C@H](F)CN2C(=O)CNC(=O)[C@H](Cc2ccc(C(=O)O)cc2)NC(=O)[C@H](Cc2ccncc2)NC(=O)[C@H](Cc2ccc(-c3ccc(C(=O)O)cc3)cc2)NC(=O)[C@H]2C[C@@H](Cc3ccncc3)CN2C(=O)CNC(=O)[C@H](CCN)NC(=O)[C@H](CCC(N)=O)NC(=O)[C@H](CCS(C)(=O)=O)NC(=O)C(C)(C)NC(=O)[C@H](Cc2c[nH]c3ccccc23)NC(=O)[C@H](CO)NC(=O)C(C)(C)NC1=O` [Example 266] (cyclo([Bip(4'-COOH)][4Pal][Phe(4-COOH)]G[Pro(cis-4-F)][Trp(βS-Me,4-F)][Aib]SW[Aib][Met(O2)]Q[Dab]G[dPro(4R-(4-pyridylmethyl))])) stands 0.019 nM.
